Measurements as given in patent publication US11464770B2, “Anticancer pharmaceutical composition” (NATIONAL CANCER CENTER, priority 2016, dated 2022).
Where two headings read alike, the source gives them in different places.

Key:
renal cancer cell lines = assay: Cell based assay, cell viability (CellTiter-Glo), renal cancer cell lines; conditions: Homo sapiens; ACHN cells
In short: (§1)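 Plated cells (24 h) → compound to 0–2 μM final → 72 h → CellTiter-Glo ATP luminescence.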

[1] = test system: pancreatic cancer cell lines (e.g. MIA PaCa-2); assay: Cell based assay, cell viability (CellTiter-Glo), pancreatic cancer cell lines; conditions: Homo sapiens
In short: as §1

brain cancer cell lines = assay: Cell based assay, cell viability (CellTiter-Glo), brain cancer cell lines; conditions: Homo sapiens
neuroblastoma cell lines = assay: Cell based assay, cell viability (CellTiter-Glo), neuroblastoma cell lines; conditions: Homo sapiens; SH-SY5Y cell line
In short: as §1

[2] = pancreatic cancer cell line AsPC-1, 72 hours, read-out: IC50, AsPC-1
[3] = pancreatic cancer cell line BxPC-3, 72 hours, read-out: IC50, BxPC-3
[4] = pancreatic cancer cell line CFPAC-1, 72 hours, read-out: IC50, CFPAC-1
[5] = pancreatic cancer cell line Capan-1, 72 hours, read-out: IC50, Capan-1
[6] = pancreatic cancer cell line Capan-2, 72 hours, read-out: IC50, Capan-2
[7] = pancreatic cancer cell line MIA PaCa-2, 72 hours, read-out: IC50, MIA PaCa-2
[8] = pancreatic cancer cell line PANC-1, 72 hours, read-out: IC50, PANC-1
[9] = U138-MG, U-138 MG cell line, read-out: IC50, Brain cancer cell line U-138 MG
[10] = T98G cell line, read-out: IC50, Brain cancer cell line T98G
[11] = U-251 MG cell line, read-out: IC50, Brain cancer cell line U-251 MG

SMILES	IC50 (renal cancer cell lines) [nM]	IC50 [1, 2] [nM]	IC50 [1, 3] [nM]	IC50 [1, 4] [nM]	IC50 [1, 5] [nM]	IC50 [1, 6] [nM]	IC50 [1, 7] [nM]	IC50 [1, 8] [nM]	IC50 (brain cancer cell lines; [9]) [nM]	IC50 (brain cancer cell lines; [10]) [nM]	IC50 (brain cancer cell lines; [11]) [nM]	IC50 (neuroblastoma cell lines) [nM]
COc1cc(S(F)(F)(F)(F)F)ccc1C[S+]([O-])c1[nH]c2c(Br)ccc(Cl)c2c(=O)c1C(C)=O (stereo not drawn) [Compound 75, 3-acetyl-8-bromo-5-chloro-2-((2-methoxy-4-(pentafluoro--sulfanyl)benzyl)sulfinyl)quinolin-4(1H)-one]	> 2000	> 2000	> 2000	> 10000	> 2000	> 2000	1320	> 2000	1370	> 10000	1090	> 2000
CC(=O)c1c([S+]([O-])Cc2cccnc2)[nH]c2c(Br)ccc(Cl)c2c1=O (stereo not drawn) [Compound 84, 3-acetyl-8-bromo-5-chloro-2-((pyridin-3-ylmethyl)sulfinyl)quinolin-4(1H)-one]	1380	1800	> 2000	> 10000	1500	> 2000	920	> 2000	> 2000	> 10000	> 2000	600
CC(=O)c1c([S+]([O-])Cc2ccc(C#N)cc2)[nH]c2c(Br)ccc(Cl)c2c1=O (stereo not drawn) [Compound 73, 4-(((3-acetyl-8-bromo-5-chloro-4-oxo-1,4-dihydroquinolin-2-yl)sulfinyl)methyl)benzonitrile]	> 2000	> 2000	> 2000	> 10000	> 2000	> 2000	1650	> 2000	> 2000	> 10000	> 2000	> 2000
CC(=O)c1c([S+]([O-])Cc2ccc(F)c(Cl)c2)[nH]c2c(Br)ccc(Cl)c2c1=O (stereo not drawn) [Compound 31, 3-acetyl-8-bromo-5-chloro-2-((3-chloro-4-fluorobenzyl)sulfinyl)quinolin-4(1H)-one]	> 2000	> 2000	> 2000	> 10000	> 2000	> 2000	1180	> 2000	1790	> 10000	1090	> 2000
CC(=O)c1c([S+]([O-])Cc2cc(F)cc(S(F)(F)(F)(F)F)c2)[nH]c2c(Br)ccc(Cl)c2c1=O (stereo not drawn) [Compound 76, 3-acetyl-8-bromo-5-chloro-2-((3-fluoro-5-(pentafluoro--sulfanyl)benzyl)sulfinyl)quinolin-4(1H)-one]	> 2000	> 2000	> 2000	> 10000	> 2000	> 2000	1550	> 2000	> 2000	> 10000	> 2000	> 2000
CC(=O)c1c([S+]([O-])Cc2cc(Cl)ccc2Cl)[nH]c2c(Br)ccc(Cl)c2c1=O (stereo not drawn) [Compound 44, 3-acetyl-8-bromo-5-chloro-2-((2,5-dichlorobenzyl)sulfinyl)quinolin-4(1H)-one]	> 2000	> 2000	> 2000	> 10000	> 2000	> 2000	1230	> 2000	> 2000	> 10000	1050	> 2000
CC(=O)c1c(S(=O)(=O)Cc2ccccc2)[nH]c2c(Br)ccc(Cl)c2c1=O [Compound 34, 3-acetyl-2-(benzylsulfonyl)-8-bromo-5-chloroquinolin-4(1H)-one]	> 2000	> 2000	> 2000	> 10000	> 2000	> 2000	1990	> 2000	> 2000	> 10000	> 2000	> 2000
CC(=O)c1c([S+]([O-])Cc2ccc([S+]([O-])C(F)(F)F)cc2)[nH]c2c(Br)ccc(Cl)c2c1=O (stereo not drawn) [Compound 64, 3-acetyl-8-bromo-5-chloro-2-((4-((trifluoromethyl)sulfinyl)benzyl)sulfinyl)quinolin-4(1H)-one]	> 2000	> 2000	> 2000	> 10000	> 2000	> 2000	1220	> 2000	1430	> 10000	> 2000	> 2000
CC(=O)c1c([S+]([O-])Cc2ccc(F)cc2F)[nH]c2c(Br)ccc(Cl)c2c1=O (stereo not drawn) [Compound 29, 3-acetyl-8-bromo-5-chloro-2-((2,4-difluorobenzyl)sulfinyl)quinolin-4(1H)-one]	> 2000	> 2000	> 2000	> 10000	> 2000	> 2000	1190	> 2000	1380	> 10000	1140	> 2000
COc1cccc(C[S+]([O-])c2[nH]c3c(Br)ccc(Cl)c3c(=O)c2C(C)=O)c1 (stereo not drawn) [Compound 55, 3-acetyl-8-bromo-5-chloro-2-((3-methoxybenzyl)sulfinyl)quinolin-4(1H)-one]	> 2000	> 2000	> 2000	> 10000	> 2000	> 2000	1690	> 2000	> 2000	> 10000	> 2000	> 2000
CC(=O)c1c([S+]([O-])Cc2cc(F)cc(F)c2)[nH]c2c(Br)ccc(Cl)c2c1=O (stereo not drawn) [Compound 46, 3-acetyl-8-bromo-5-chloro-2-((3,5-difluorobenzyl)sulfinyl)quinolin-4(1H)-one]	> 2000	> 2000	> 2000	> 10000	> 2000	> 2000	1570	> 2000	> 2000	> 10000	> 2000	> 2000
CC(=O)c1c([S+]([O-])Cc2c(F)cccc2Cl)[nH]c2c(Br)ccc(Cl)c2c1=O (stereo not drawn) [Compound 74, 3-acetyl-8-bromo-5-chloro-2-((2-chloro-6-fluorobenzyl)sulfinyl)quinolin-4(1H)-one]	> 2000	> 2000	> 2000	> 10000	> 2000	> 2000	1180	> 2000	1440	> 10000	> 2000	> 2000
CC(=O)c1c([S+]([O-])Cc2c(F)c(F)c(F)c(F)c2F)[nH]c2c(Br)ccc(Cl)c2c1=O (stereo not drawn) [Compound 78, 3-acetyl-8-bromo-5-chloro-2-(((perfluorophenyl)methyl)sulfinyl)quinolin-4(1H)-one]	> 2000	> 2000	> 2000	> 10000	> 2000	> 2000	1400	> 2000	> 2000	> 10000	> 2000	> 2000
Cc1cc(C[S+]([O-])c2[nH]c3c(Cl)ccc(Cl)c3c(=O)c2C(=O)C(C)C)no1 (stereo not drawn) [Compound 86, 5,8-dichloro-3-isobutyryl-2-(((5-methylisoxazol-3-yl)methyl)sulfinyl)quinolin-4(1H)-one]	1330	1280	> 2000	> 10000	1260	> 2000	640	> 2000	1290	> 10000	740	500
CC(=O)c1c([S+]([O-])Cc2ccc([N+](=O)[O-])cc2)[nH]c2c(Cl)ccc(Cl)c2c1=O (stereo not drawn) [Compound 57, 3-acetyl-5,8-dichloro-2-((4-nitrobenzyl)sulfinyl)quinolin-4(1H)-one]	> 2000	> 2000	> 2000	> 10000	> 2000	> 2000	> 2000	> 2000	> 10000	> 10000	> 2000	> 2000
CC(=O)c1c([S+]([O-])Cc2ccc(C(F)(F)F)cc2)[nH]c2c(Br)ccc(Cl)c2c1=O (stereo not drawn) [Compound 70, 3-acetyl-8-bromo-5-chloro-2-((4-(trifluoromethyl)benzyl)sulfinyl)quinolin-4(1H)-one]	> 2000	> 2000	> 2000	> 10000	> 2000	> 2000	1440	> 2000	1520	> 10000	1140	> 2000
CC(=O)c1c([S+]([O-])Cc2cc(C)on2)[nH]c2c(Br)ccc(Cl)c2c1=O (stereo not drawn) [Compound 51, 3-acetyl-8-bromo-5-chloro-2-(((5-methylisoxazol-3-yl)methyl)sulfinyl)quinolin-4(1H)-one]	> 2000	> 2000	> 2000	> 10000	> 2000	> 2000	760	> 2000	1920	> 10000	> 2000	> 2000
CC(=O)c1c([S+]([O-])Cc2cccc(F)c2)[nH]c2c(Br)ccc(Cl)c2c1=O (stereo not drawn) [Compound 50, 3-acetyl-8-bromo-5-chloro-2-((3-fluorobenzyl)sulfinyl)quinolin-4(1H)-one]	> 2000	> 2000	> 2000	> 10000	> 2000	> 2000	1450	> 2000	> 2000	> 10000	1280	> 2000
CC(=O)c1c([S+]([O-])Cc2ccc(C(F)(F)F)o2)[nH]c2c(Br)ccc(Cl)c2c1=O (stereo not drawn) [Compound 72, 3-acetyl-8-bromo-5-chloro-2-(((5-(trifluoromethyl)furan-2-yl)methyl)sulfinyl)quinolin-4(1H)-one]	> 2000	2010	> 2000	> 10000	> 2000	> 2000	1000	> 2000	1180	> 10000	1070	> 2000
COC(=O)c1ccc(C[S+]([O-])c2[nH]c3c(Cl)ccc(Cl)c3c(=O)c2C(C)=O)o1 (stereo not drawn) [Compound 89, methyl 5-(((3-acetyl-5,8-dichloro-4-oxo-1,4-dihydroquinolin-2-yl)sulfinyl)methyl)furan-2-carboxylate]	> 2000	> 2000	> 2000	> 10000	> 2000	> 2000	1410	> 2000	> 2000	> 10000	> 2000	1040
COc1cc(C[S+]([O-])c2[nH]c3c(Br)ccc(Cl)c3c(=O)c2C(C)=O)cc(OC)c1 (stereo not drawn) [Compound 59, 3-acetyl-8-bromo-5-chloro-2-((3,5-dimethoxybenzyl)sulfinyl)quinolin-4(1H)-one]	> 2000	> 2000	> 2000	> 10000	> 2000	> 2000	1380	> 2000	1500	> 10000	1280	> 2000
